# In patent publication US9670213B2, “Pteridine ketone derivative and applications thereof as EGFR, BLK, and FLT3 inhibitor” (EAST CHINA UNIVERSITY OF SCIENCE AND TECHNOLOGY, priority 2012, dated 2017):
# Experiments:
# [1] = system: BT474 (breast cancer cells, Her2 overexpression); test: Cell proliferation and growth inhibition analysis; type: cell-based; conditions: Homo sapiens, BT-474, 72 hours, read-out: Inhibitory activity on cell proliferation (IC50, μM) BT474
# Procedure: (§1) Cell proliferation and growth inhibition analysis: H1975 (non-small cell lung cancer cells, EGFR^L858/T790M), HCC827 (non-small cell lung cancer cells, EGFR^del E746-A750), A549 (non-small cell lung cancer cells, EGFR wild-type), BT474 (breast cancer cells, Her2 overexpression), SK-BR-3 (breast cancer cells, Her2 overexpression), MCF-7 (breast cancer cells, […]) cells were obtained from ATCC. Cell proliferation was evaluated by MTS assay. Cells were exposed to the process conditions for 72 hours, and the number of cells for each cell line used in the experiment was adjusted according to the absorbance value (absorbance value at 490 nm was 1.3-2.2). 6 concentration gradients (0.1 nM-10 μM) were set for the compounds to be tested, with six parallel controls for each concentration.
# [2] = system: A549 (non-small cell lung cancer cells, EGFR wild-type); test: Cell proliferation and growth inhibition analysis; type: cell-based; conditions: Homo sapiens, 72 hours, read-out: Inhibitory activity on cell proliferation (IC50, μM) A549
# Procedure: as §1
# [3] = system: MCF-7; test: Cell proliferation and growth inhibition analysis; type: cell-based; conditions: Homo sapiens, MCF7; MCF-7 cells, 72 hours; read-out: Inhibitory activity on cell proliferation (IC50, μM) MCF-7
# Procedure: as §1
# [4] = system: SK-BR-3 (breast cancer cells, Her2 overexpression); test: Cell proliferation and growth inhibition analysis; type: cell-based; conditions: Homo sapiens; SK-BR-3 cells, 72 hours; read-out: Inhibitory activity on cell proliferation (IC50, μM) SK-BR-3
# Procedure: as §1
# [5] = biological target: BLK (Homo sapiens (Human), UniProt P51451); test: BLK kinase activity assay (Caliper); type: biochemical; conditions: read-out: Inhibitory activity on kinase (IC50, nM) BLK
# Procedure: (§2) Preparation of 1× kinase matrix buffer and stop buffer.
# (§3) Preparation of compound solution. The compound was dissolved in 100% DMSO to a concentration, which was 50 times of the final highest inhibiting-concentration. 100 μL of the compound solution as said above was transferred into wells of 96-well plate. The above compound solution was sequentially diluted to the final desired concentration. In two blank wells of same 96-well plate, 100 μL of 100% DMSO was added as no-compound and no-kinase control, and this plate was used as the original plate.
# (§4) Preparation of intermediate plate. 10 μL of compound solution was transferred from the original plate to another 96-well plate as the intermediate plate; 90 μL of 1× kinase buffer was added into each well of the intermediate plate, and the intermediate plate was shaken for 10 min.
# (§5) Preparation of assay plate. 5 μL of solution from each well of intermediate plate was added into a 384-well plate, and repeated controls were set.
# (§6) Kinase reaction. 2.5× kinase solution and 2.5× peptide solution were prepared. 2.5× kinase solution was transferred into assay plate. Assay plate comprised 5 μL of the compound solution in 10% DMSO. 10 μL of 2.5× kinase solution was added in each well of 384-well assay plate. […] 2.5× peptide solution was added into each well. After incubated at 28° C. for an appropriate time, 25 μL of stop buffer was added to quench the reaction. Experimental data were collected in Caliper. Curve was fitted.
# [6] = system: H1975 (non-small cell lung cancer cells, EGFR L858R/T790M); test: Cell proliferation and growth inhibition analysis; type: cell-based; conditions: Homo sapiens, NCI-H1975, 72 hours, read-out: Inhibitory activity on cell proliferation (IC50, μM) H1975
# Procedure: (§7) Cell proliferation was evaluated by MTS assay. Cells were exposed to the process conditions for 72 hours, and the number of cells for each cell line used in the experiment was adjusted according to the absorbance value (absorbance value at 490 nm was 1.3-2.2). 6 concentration gradients (0.1 nM-10 μM) were set for the compounds to be tested, with six parallel controls for each concentration.
# (§8) H1975, HCC827, A549, BT474, MCF-7, SK-BR-3 cells were cultured in the corresponding medium. Upon recovery, the cells were passaged at least two times and then used in experiments. Cells in Log phase were trypsinized and resuspended in the medium. H1975 (1000 cells per well), BT474 (1500 cells per well), MCF-7 (1500 cells per well), HCC827 (2000 cells per well), SK-BR-3 (2000 cells per well), A549 (2000 cells per well) were seeded into 96-well plates, the volume was 100 μL, and 6 rows and 7 columns were set. The plate was placed in an incubator at 37° C. of 5% carbon dioxide overnight. Compounds were dissolved in DMSO to obtain the concentration of […], and then gradually diluted to obtain the concentration of compound as […], 0.1 μM, 0.01 μM, 0.001 μM, 0.0001 μM. 2 μL of compound solution was added into 998 μL of medium, and the resulting mixture was thoroughly mixed. 100 μL of mixture was added into 96-well plate. […] After the cells were cultured for 68 hours, 20 μL of MTT (5 mg/mL) was added. After 4 hours, the supernatant was discarded and 150 μL of DMSO was added. The resulting system was shaken for 10 minutes, and the plate was read with Synergy HT (Bio TeK) (OD490). The data was calculated by GraphPad Prism version 4.0, and IC50 was obtained by non-linear regression model using dose-response curve.
# [7] = system: HCC827 (non-small cell lung cancer cells, EGFR del E746-A750); test: Cell proliferation and growth inhibition analysis; type: cell-based; conditions: Homo sapiens, 72 hours, read-out: Inhibitory activity on cell proliferation (IC50, μM) HCC827
# Procedure: as §7, §8
# [8] = biological target: EGFR-L858R (Homo sapiens (Human), UniProt P00533, L858R); test: In vitro EGFR kinase activity assay (Z'-Lyte); type: biochemical; conditions: read-out: Inhibitory activity on EGFR kinase (IC50, nM) L858R;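 note: Cell-free kinase reaction with peptide substrate and ATP, 1.5 h at room temperature, then development step cleaving non-phosphorylated peptide, 10-point dilution series 0.051–1000 nM, phosphopeptide as 100% phosphorylation control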
# Procedure: (§9) Inhibitory effects in vitro of the compounds provided in the present invention on EGFR kinase activity was tested as follows:
# (§10) 10 concentration gradients, from 5.1×10^−11 mol/L to 1.0×10^−6 mol/L, were set for all of the compounds to be tested.
# (§11) 10 μL of kinase reaction system comprised 2.5 μL of compound solution, 5 μL of Kinase/peptide mixture, and 2.5 μL of ATP solution. 5 μL of phosphopeptide solution was used in place of kinase/peptide mixture as 100% phosphorylation control. […] After thoroughly mixing the solution within the plate, the plate was incubated at room temperature for 1.5 hours. 5 μL of DevelopmentSolution was added into each well, and then the plate was incubated at room temperature for another 1 hour, and non-phosphorylated peptide was cleaved within this period. Finally, the reaction was quenched by adding 5 μL of Stop Reagent. The Plate was measured with EnVision Multilabel Reader (Perkin Elmer). Experimental data were calculated by using GraphPad Prism version 4.0. Each experiment was repeated more than three times.
# [9] = biological target: FLT3 (Homo sapiens (Human), UniProt P36888); test: FLT3 kinase activity assay (Caliper); type: biochemical; conditions: read-out: Inhibitory activity on kinase (IC50, nM) FLT3
# Procedure: as §2, §3, §4, §5, §6
# [10] = biological target: wild-type EGFR (Homo sapiens (Human), UniProt P00533); test: In vitro EGFR kinase activity assay (Z'-Lyte); type: biochemical; conditions: EGFR WT; read-out: Inhibitory activity on EGFR kinase (IC50, nM) WT;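 note: Ten-point dose series from 5.1×10^−11 to 1.0×10^−6 mol/L, kinase reaction 1.5 h at room temperature, then 1 h development cleaving unphosphorylated peptide, phosphopeptide as 100% phosphorylation control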
# Procedure: as §9, §10, §11
# [11] = biological target: EGFR-L858R/T790M (Homo sapiens (Human), UniProt P00533, L858R/T790M); test: In vitro EGFR kinase activity assay (Z'-Lyte); type: biochemical; conditions: read-out: Inhibitory activity on EGFR kinase (IC50, nM) T790M/L858R;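 note: Cell-free kinase reaction with peptide substrate and ATP, 1.5 h at room temperature, development cleaving unphosphorylated peptide, 10-point dilution 0.051–1000 nM, phosphopeptide as 100% phosphorylation control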
# Procedure: as §9, §10, §11
# [12] = biological target: EGFR-T790M (Homo sapiens (Human), UniProt P00533, T790M); test: In vitro EGFR kinase activity assay (Z'-Lyte); conditions: read-out: Inhibitory activity on EGFR kinase (IC50, nM) T790M
# Procedure: as §9, §10, §11
# Chain of EGFR-L858R (P00533 25-1210 L858R): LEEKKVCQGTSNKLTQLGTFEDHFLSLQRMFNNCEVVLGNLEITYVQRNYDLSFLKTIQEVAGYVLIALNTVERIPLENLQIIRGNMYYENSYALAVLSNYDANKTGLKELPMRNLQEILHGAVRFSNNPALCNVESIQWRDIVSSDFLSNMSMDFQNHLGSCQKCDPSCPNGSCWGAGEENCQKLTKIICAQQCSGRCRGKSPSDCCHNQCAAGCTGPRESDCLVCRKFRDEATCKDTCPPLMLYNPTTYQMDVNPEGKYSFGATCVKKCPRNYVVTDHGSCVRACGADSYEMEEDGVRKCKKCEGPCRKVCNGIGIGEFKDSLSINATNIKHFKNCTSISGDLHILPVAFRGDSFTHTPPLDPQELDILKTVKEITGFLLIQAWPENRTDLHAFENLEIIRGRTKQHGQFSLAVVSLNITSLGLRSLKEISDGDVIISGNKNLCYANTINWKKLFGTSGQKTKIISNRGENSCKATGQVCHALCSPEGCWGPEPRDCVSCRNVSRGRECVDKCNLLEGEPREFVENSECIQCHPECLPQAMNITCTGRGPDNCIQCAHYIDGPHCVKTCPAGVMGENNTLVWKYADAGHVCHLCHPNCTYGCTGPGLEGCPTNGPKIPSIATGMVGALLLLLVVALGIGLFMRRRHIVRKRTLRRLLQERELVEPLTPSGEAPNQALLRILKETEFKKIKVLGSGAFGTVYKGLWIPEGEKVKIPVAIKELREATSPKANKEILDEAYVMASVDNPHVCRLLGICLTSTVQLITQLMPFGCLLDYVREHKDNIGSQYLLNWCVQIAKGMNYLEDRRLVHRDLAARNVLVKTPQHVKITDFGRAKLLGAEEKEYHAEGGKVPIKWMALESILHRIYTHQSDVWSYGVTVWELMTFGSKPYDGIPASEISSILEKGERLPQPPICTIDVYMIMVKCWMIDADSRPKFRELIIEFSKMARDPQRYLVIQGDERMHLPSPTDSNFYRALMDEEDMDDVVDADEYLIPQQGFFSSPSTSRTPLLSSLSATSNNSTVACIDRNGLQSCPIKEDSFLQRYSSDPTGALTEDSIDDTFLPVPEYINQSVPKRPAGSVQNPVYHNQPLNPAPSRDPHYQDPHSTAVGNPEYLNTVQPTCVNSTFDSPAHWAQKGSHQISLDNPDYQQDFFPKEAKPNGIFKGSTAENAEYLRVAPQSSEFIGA
# Chain of wild-type EGFR (P00533 25-1210): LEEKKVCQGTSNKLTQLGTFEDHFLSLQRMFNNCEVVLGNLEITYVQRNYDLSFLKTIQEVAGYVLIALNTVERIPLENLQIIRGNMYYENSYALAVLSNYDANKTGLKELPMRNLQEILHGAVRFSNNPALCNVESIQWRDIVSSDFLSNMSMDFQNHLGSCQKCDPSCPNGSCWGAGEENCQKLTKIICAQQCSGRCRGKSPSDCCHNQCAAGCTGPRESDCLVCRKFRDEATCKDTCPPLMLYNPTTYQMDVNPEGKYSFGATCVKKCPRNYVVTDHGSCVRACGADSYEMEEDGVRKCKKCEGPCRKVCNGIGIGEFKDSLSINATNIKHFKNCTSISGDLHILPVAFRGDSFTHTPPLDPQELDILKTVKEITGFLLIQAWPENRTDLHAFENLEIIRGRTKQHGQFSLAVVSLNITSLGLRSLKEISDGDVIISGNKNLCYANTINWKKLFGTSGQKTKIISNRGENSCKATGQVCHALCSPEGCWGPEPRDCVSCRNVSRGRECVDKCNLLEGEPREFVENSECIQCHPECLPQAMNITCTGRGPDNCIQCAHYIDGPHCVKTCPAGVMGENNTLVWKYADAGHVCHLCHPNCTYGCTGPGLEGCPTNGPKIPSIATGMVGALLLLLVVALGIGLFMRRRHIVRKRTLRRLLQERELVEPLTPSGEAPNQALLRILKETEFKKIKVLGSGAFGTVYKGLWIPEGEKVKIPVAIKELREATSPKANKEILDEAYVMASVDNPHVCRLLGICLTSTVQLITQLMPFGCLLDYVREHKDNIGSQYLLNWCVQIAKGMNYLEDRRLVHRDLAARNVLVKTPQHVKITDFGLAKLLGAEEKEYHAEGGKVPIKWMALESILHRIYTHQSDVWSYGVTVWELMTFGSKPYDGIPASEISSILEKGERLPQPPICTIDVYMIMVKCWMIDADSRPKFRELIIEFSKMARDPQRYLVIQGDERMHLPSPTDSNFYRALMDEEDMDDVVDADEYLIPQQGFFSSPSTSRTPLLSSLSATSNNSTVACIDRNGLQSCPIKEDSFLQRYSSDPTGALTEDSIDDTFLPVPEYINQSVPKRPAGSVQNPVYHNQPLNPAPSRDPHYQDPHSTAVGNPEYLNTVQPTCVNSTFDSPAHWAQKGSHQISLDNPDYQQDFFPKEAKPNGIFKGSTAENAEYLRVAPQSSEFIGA
# Chain of EGFR-L858R/T790M (P00533 25-1210 T790M/L858R): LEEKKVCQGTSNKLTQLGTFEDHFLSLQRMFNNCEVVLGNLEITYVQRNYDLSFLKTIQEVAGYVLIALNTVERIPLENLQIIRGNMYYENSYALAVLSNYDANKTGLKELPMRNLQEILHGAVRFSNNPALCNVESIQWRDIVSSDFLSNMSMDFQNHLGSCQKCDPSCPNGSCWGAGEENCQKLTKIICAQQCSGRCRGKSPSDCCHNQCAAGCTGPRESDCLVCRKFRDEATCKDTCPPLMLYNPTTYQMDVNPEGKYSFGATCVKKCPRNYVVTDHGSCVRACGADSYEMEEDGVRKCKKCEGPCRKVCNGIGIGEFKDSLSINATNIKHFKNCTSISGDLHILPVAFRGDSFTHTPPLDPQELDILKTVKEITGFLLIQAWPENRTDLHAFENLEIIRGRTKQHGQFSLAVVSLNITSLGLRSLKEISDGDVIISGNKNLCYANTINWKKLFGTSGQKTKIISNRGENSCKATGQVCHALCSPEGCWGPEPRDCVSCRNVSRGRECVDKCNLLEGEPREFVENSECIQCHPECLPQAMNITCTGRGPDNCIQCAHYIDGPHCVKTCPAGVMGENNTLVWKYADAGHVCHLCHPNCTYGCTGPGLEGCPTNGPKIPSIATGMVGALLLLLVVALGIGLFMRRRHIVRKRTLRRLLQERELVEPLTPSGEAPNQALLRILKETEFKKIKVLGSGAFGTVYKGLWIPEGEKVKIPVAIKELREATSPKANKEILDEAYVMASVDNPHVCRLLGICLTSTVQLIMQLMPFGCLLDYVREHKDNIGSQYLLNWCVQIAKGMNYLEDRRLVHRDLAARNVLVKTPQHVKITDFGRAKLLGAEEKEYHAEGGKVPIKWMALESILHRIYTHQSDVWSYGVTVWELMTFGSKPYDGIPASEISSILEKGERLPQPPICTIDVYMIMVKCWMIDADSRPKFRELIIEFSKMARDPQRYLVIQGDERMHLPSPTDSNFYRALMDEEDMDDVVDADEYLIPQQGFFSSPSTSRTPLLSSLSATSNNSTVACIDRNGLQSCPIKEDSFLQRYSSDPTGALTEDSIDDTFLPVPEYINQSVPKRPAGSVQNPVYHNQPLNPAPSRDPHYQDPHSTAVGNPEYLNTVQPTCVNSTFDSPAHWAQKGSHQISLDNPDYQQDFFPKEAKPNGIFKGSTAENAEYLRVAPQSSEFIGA
# Chain of BLK (P51451 whole entry): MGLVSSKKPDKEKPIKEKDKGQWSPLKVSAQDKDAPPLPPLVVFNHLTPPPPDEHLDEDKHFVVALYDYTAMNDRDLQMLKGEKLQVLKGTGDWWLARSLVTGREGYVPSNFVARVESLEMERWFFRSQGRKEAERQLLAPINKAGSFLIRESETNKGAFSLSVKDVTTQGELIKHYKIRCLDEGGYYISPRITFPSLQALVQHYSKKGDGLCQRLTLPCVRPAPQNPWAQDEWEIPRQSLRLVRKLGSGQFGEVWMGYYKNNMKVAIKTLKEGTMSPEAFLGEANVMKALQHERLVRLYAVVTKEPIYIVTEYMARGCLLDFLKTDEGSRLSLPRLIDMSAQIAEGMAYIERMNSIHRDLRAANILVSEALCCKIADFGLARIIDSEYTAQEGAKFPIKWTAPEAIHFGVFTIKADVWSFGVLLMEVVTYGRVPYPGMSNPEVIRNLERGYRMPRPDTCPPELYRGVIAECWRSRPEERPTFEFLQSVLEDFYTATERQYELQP
# Chain of FLT3 (P36888 27-993): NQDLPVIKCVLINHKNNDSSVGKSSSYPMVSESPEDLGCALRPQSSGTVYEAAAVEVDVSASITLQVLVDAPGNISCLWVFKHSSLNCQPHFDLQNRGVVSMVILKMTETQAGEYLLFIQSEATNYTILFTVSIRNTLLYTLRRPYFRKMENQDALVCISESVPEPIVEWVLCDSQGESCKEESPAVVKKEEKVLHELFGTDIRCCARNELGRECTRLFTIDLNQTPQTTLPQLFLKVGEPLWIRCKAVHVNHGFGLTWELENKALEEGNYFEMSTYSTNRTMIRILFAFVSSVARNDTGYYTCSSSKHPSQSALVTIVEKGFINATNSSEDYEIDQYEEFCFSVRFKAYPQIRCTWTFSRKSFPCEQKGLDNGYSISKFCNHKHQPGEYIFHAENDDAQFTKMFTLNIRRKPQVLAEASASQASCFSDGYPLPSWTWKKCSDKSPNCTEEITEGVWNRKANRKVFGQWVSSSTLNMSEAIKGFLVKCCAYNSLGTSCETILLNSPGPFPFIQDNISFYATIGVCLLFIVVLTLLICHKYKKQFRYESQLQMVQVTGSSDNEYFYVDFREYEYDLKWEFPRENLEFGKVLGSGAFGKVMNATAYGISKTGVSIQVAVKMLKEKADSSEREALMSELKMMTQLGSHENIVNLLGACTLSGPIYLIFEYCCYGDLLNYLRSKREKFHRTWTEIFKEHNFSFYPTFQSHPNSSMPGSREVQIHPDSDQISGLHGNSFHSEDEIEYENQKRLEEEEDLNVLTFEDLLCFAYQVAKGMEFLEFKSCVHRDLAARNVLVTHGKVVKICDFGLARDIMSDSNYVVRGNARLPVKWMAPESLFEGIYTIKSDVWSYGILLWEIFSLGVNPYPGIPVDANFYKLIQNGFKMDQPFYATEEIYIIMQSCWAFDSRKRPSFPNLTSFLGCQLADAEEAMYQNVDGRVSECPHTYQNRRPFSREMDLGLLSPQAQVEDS
Compound,IC50 [1] [µM],IC50 [2] [µM],IC50 [3] [µM],IC50 [4] [µM],IC50 [5] [nM],IC50 [6] [µM],IC50 [7] [µM],IC50 [8] [nM],IC50 [9] [nM],IC50 [10] [nM],IC50 [11] [nM],IC50 [12] [nM]
COc1ccc(Nc2ncc3ncc(=O)n(-c4cccc(N)c4)c3n2)cc1 [Compound 005],> 10,> 10,> 10,> 10,> 10000,> 10,> 10,87200,30,> 10000,> 10000,> 10000
"C=CC(=O)Nc1ccc(-n2c(=O)cnc3cnc(Nc4ccc(N5CCOCC5)cc4)nc32)cc1 [Compound 003, N-(4-(2-(4-morpholino-phenylamino)-7-oxo-8(7H)-pteridin-yl)phenyl)acrylamide]",> 10,> 10,> 10,> 10,4170,> 10,3.01,4080,137,8010,3300,8700
"C=CC(=O)Nc1ccc(-n2c(=O)c(C)nc3cnc(Nc4ccc(OC)cc4)nc32)cc1 [Compound 004, N-(4-(2-(4-methoxyphenylamino)-6-methyl-7-oxo-8(7H)-pteridin-yl)phenyl)acrylamide]",> 10,> 10,> 10,> 10,> 10000,> 10,3.33,4880,206,3180,> 10000,> 10000
"COc1ccc(Nc2ncc3ncc(=O)n(-c4cccc(NC(=O)/C=C/CN(C)C)c4)c3n2)cc1 [Compound 010, 4-(dimethylamino)-N-(3-(2-(4-methoxyphenylamino)-7-oxo-8(7H)-pteridin-yl)phenyl)-2-buteneamide]",3.43,> 10,3.6,7.17,106,> 10,4.16,6080,4390,8090,2020,2250
